This passage reports IC50 results from ChEMBL document CHEMBL5465560, “Selectivity Literature for EUbOPEN Chemogenomic Library” (2024).

The target in test [1] is Cyclin-dependent kinase 2 (Homo sapiens, UniProt P24941). Briefly: Selectivity interaction (Kinase panel (Invitrogen, enzymatic assay)) EUB0000623aCl CDK2.
Test [2] concerns the target Epidermal growth factor receptor (Homo sapiens, UniProt P00533). Briefly: Selectivity interaction (Kinase panel (Invitrogen, enzymatic assay)) EUB0000623aCl EGFR.
For another test, the target named is Ephrin type-A receptor 3 (Homo sapiens, UniProt P29320). Description: Selectivity interaction (Kinase panel (Invitrogen, enzymatic assay)) EUB0000623aCl EPHA3.
The target in test [3] is Receptor tyrosine-protein kinase erbB-4 (Homo sapiens, UniProt Q15303). Briefly: Selectivity interaction (Kinase panel (Invitrogen, enzymatic assay)) EUB0000623aCl ERBB4.
The target of test [4] is Glycogen synthase kinase-3 beta (Homo sapiens, UniProt P49841). Briefly: Selectivity interaction (Kinase panel (Invitrogen, enzymatic assay)) EUB0000623aCl GSK3B.
Test [5] concerns the target Inhibitor of nuclear factor kappa-B kinase subunit beta (Homo sapiens, UniProt O14920). Description: Selectivity interaction (Kinase panel (Invitrogen, enzymatic assay)) EUB0000623aCl IKBKB.
For test [6], the target named is Mitogen-activated protein kinase kinase kinase 1 (Homo sapiens, UniProt Q13233). Description: Selectivity interaction (Kinase panel (Invitrogen, enzymatic assay)) EUB0000623aCl MAP3K1.
The target of test [7] is Mitogen-activated protein kinase kinase kinase 7 (Homo sapiens, UniProt O43318). Description: Selectivity interaction (Kinase panel (Invitrogen, enzymatic assay)) EUB0000623aCl MAP3K7.
Test [8] deals with T1, Mitogen-activated protein kinase 14 (Homo sapiens, UniProt Q16539). Description: (§1) Selectivity interaction (Kinase panel (Invitrogen, enzymatic assay)) EUB0000623aCl MAPK14.
Test [9] has as its target T1, Mitogen-activated protein kinase 14. The test is described as §1. The source holds these as a separate data set.
The target in test [10] is Mitogen-activated protein kinase 3 (Homo sapiens, UniProt P27361). Description: Selectivity interaction (Kinase panel (Invitrogen, enzymatic assay)) EUB0000623aCl MAPK3.
The target in test [11] is Mitogen-activated protein kinase 8 (Homo sapiens, UniProt P45983). Description: Selectivity interaction (Kinase panel (Invitrogen, enzymatic assay)) EUB0000623aCl MAPK8.
For test [12], the target named is Protein kinase C theta type (Homo sapiens, UniProt Q04759). Briefly: Selectivity interaction (Kinase panel (Invitrogen, enzymatic assay)) EUB0000623aCl PRKCQ.
Test [13] has as its target Macrophage-stimulating protein receptor (Homo sapiens, UniProt Q04912). Description: Selectivity interaction (Kinase panel (Invitrogen, enzymatic assay)) EUB0000623aCl MST1R.

T1 sequence (Q16539 whole entry): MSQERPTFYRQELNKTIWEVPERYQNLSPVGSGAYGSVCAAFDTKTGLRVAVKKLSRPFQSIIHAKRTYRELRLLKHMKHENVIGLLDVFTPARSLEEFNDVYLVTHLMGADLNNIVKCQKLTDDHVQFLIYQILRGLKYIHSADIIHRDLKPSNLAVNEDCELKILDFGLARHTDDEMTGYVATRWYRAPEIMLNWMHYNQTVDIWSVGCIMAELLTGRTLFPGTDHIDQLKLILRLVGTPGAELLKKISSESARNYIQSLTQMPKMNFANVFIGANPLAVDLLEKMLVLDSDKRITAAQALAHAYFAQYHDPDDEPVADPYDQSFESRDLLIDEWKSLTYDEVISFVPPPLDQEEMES
Sequence of Macrophage-stimulating protein receptor (Q04912 25-304 limits assumed): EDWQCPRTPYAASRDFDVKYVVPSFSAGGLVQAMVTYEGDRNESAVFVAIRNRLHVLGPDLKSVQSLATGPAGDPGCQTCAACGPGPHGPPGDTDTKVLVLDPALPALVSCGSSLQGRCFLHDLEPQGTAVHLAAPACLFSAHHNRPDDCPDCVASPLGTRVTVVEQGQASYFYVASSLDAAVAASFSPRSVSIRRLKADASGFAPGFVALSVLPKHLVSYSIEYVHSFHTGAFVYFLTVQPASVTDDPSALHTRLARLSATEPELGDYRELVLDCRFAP
Sequence of Macrophage-stimulating protein receptor (Q04912 310-1400 limits assumed): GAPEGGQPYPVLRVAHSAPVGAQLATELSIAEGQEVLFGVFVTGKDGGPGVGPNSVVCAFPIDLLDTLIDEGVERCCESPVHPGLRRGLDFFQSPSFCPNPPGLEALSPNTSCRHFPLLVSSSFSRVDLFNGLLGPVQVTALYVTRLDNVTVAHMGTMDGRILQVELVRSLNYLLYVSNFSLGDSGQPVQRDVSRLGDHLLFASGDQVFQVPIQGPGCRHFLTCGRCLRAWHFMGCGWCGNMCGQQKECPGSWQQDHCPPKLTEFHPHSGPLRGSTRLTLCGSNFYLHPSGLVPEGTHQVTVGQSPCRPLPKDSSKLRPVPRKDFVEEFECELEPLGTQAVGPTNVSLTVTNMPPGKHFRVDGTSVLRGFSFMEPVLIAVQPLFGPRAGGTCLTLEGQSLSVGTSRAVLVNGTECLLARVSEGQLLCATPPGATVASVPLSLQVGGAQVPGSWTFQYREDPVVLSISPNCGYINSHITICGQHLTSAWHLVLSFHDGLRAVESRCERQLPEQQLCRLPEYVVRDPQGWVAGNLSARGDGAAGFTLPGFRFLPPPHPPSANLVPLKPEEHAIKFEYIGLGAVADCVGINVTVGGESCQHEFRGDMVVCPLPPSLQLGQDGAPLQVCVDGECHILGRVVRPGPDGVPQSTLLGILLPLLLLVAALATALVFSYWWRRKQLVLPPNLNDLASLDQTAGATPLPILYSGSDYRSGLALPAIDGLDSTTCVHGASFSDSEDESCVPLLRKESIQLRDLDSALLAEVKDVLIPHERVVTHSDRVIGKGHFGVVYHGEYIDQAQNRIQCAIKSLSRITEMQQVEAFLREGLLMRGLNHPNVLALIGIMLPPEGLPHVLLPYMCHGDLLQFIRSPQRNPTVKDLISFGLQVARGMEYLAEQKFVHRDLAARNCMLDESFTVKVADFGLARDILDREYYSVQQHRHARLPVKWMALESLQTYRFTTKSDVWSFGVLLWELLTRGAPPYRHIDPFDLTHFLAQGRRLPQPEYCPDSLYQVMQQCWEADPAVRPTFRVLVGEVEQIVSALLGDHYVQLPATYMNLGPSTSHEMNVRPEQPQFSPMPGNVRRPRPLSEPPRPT
Sequence of Mitogen-activated protein kinase kinase kinase 7 (O43318 whole entry): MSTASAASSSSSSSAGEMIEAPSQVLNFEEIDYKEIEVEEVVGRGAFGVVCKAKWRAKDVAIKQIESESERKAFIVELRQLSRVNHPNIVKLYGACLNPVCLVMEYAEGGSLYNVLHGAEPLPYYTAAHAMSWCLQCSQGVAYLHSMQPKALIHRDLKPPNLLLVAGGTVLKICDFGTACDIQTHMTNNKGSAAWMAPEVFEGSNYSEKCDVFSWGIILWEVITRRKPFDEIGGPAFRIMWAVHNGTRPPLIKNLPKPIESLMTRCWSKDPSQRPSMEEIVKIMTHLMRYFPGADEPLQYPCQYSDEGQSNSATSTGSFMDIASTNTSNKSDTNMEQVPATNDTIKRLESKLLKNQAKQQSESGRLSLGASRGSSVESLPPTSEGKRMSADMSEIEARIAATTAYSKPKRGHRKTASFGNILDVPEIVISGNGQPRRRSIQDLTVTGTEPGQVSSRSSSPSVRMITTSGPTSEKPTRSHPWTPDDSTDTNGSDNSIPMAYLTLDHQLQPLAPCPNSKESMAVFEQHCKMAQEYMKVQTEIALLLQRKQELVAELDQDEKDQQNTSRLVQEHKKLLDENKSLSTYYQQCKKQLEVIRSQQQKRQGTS
Sequence of Mitogen-activated protein kinase 8 (P45983 whole entry): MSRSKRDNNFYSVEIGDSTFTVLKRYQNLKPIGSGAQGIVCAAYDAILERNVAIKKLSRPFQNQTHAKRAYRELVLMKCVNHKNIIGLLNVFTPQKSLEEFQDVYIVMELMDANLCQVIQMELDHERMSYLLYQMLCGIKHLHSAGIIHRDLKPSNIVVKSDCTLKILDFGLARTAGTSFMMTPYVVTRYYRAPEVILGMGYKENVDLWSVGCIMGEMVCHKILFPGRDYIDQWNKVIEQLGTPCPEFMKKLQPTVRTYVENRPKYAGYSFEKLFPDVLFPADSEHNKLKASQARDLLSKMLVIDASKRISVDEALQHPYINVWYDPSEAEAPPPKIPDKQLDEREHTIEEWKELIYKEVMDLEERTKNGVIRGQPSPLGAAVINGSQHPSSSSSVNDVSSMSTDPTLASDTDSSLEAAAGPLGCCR
Sequence of Ephrin type-A receptor 3 (P29320 whole entry): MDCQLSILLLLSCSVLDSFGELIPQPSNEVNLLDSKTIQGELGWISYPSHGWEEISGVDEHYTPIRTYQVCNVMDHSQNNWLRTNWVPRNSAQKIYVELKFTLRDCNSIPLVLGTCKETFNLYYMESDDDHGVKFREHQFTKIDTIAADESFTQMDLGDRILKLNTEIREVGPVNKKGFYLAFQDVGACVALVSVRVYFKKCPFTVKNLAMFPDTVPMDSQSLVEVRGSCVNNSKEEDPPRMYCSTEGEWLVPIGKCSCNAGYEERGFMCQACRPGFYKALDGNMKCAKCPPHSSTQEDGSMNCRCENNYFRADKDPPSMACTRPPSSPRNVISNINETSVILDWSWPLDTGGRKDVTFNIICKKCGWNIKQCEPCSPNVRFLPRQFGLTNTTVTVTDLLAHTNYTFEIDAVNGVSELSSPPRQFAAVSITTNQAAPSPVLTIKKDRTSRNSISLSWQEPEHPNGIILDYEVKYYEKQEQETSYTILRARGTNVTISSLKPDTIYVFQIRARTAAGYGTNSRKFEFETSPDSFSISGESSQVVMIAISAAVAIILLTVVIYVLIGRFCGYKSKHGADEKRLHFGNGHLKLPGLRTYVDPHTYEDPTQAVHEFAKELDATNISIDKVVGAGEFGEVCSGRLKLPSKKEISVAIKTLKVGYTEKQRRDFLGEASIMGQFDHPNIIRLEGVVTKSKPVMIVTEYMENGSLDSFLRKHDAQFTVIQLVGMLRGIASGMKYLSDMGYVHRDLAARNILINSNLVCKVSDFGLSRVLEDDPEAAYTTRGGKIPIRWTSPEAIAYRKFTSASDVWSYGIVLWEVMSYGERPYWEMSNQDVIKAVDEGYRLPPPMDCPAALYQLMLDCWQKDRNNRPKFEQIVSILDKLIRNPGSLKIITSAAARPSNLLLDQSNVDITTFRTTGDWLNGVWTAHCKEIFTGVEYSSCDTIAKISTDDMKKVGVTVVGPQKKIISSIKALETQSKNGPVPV
Sequence of Glycogen synthase kinase-3 beta (P49841 whole entry): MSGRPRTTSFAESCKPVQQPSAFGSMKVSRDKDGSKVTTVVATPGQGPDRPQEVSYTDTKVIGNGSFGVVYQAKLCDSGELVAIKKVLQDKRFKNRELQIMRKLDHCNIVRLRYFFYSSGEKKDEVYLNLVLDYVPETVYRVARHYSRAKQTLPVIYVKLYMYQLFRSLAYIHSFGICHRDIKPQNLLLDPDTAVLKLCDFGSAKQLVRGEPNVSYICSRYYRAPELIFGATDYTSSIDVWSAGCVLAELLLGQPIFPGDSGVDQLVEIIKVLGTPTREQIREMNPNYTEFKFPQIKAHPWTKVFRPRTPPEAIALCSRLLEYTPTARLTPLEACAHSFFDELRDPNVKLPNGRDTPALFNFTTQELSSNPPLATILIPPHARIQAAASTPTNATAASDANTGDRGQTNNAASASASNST
Sequence of Mitogen-activated protein kinase 3 (P27361 whole entry): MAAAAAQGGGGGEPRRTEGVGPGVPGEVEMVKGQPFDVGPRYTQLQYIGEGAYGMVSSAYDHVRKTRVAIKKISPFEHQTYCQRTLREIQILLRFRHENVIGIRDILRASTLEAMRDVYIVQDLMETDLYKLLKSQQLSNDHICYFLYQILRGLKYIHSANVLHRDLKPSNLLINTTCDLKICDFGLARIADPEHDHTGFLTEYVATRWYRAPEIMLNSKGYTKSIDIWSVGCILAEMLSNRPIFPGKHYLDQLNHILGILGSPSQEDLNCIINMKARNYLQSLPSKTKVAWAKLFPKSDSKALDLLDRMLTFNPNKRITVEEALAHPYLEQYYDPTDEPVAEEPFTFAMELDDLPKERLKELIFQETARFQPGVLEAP

The IC50 is the point on the concentration scale where inhibition reaches its midpoint. A higher IC50 goes with a need for much substance. Regarding `CC(C)(C)c1ccc(C(=O)Nc2cn3cc(-n4ccnc4)ccc3n2)cc1`, the IC50 is 0.158 µM in [1]; over 20 µM in test [2]; over 20 µM on Ephrin type-A receptor 3; over 20 µM in [3]; over 10 µM in test [4]; over 10 µM in test [5]. The IC50 is over 10 µM in [6]; over 10 µM in [7]; over 10 µM in test [8]; over 20 µM in test [9]; over 10 µM in test [10]; over 10 µM in [11]. In addition, the 50% inhibitory concentration (IC50) is over 10 µM in test [12] and over 20 µM in test [13].
